Laboratory results as given in ChEMBL document CHEMBL1201862, “PubChem BioAssay data set” (2004).
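1) Cells in 96-well plates. 2) Compound, 48 h, 5 concentrations. 3) Linear interpolation between surrounding doses. 4) Unreached endpoint = highest concentration. The concentration for 50% growth inhibition is given as GI50.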 Calls of active or inactive are those of the source. No stated cut-off is given here; in the data, active = GI50 up to about 1.1 µM and inactive = higher.

Key:
Assay in all cases: growth of human tumour cells (NCI), 48 h
M14 = tested on: M14
786-0 = tested on: 786-0
UACC-62 = tested on: UACC-62
MOLT-4 = tested on: MOLT-4
HCC 2998 = tested on: HCC 2998
NCI/ADR-RES = tested on: NCI/ADR-RES
CCRF-CEM = tested on: CCRF-CEM
IGROV-1 = tested on: IGROV-1
RPMI-8226 = tested on: RPMI-8226
OVCAR-8 = tested on: OVCAR-8
SNB-19 = tested on: SNB-19
SF-295 = tested on: SF-295
SK-MEL-5 = tested on: SK-MEL-5
U-251 = tested on: U-251
MCF7 = tested on: MCF7
SK-MEL-28 = tested on: SK-MEL-28
COLO 205 = tested on: COLO 205
SR = tested on: SR
A549 = tested on: A549
SK-OV-3 = tested on: SK-OV-3

| SMILES | GI50 (M14) | GI50 (786-0) | GI50 (UACC-62) | GI50 (MOLT-4) | GI50 (HCC 2998) | GI50 (NCI/ADR-RES) | GI50 (CCRF-CEM) | GI50 (IGROV-1) | GI50 (RPMI-8226) | GI50 (OVCAR-8) | GI50 (SNB-19) | GI50 (SF-295) | GI50 (SK-MEL-5) | GI50 (U-251) | GI50 (MCF7) | GI50 (SK-MEL-28) | GI50 (COLO 205) | GI50 (SR) | GI50 (A549) | GI50 (SK-OV-3) |
| --- | --- | --- | --- | --- | --- | --- | --- | --- | --- | --- | --- | --- | --- | --- | --- | --- | --- | --- | --- | --- |
| CC(=O)n1c2ccc(Br)cc2c2nc3ccccc3nc21 | > 100 µM (inactive) | > 100 µM (inactive) | > 100 µM (inactive) | > 100 µM (inactive) | > 100 µM (inactive) | > 100 µM (inactive) | > 100 µM (inactive) | > 100 µM (inactive) | > 100 µM (inactive) | > 100 µM (inactive) | > 100 µM (inactive) | > 100 µM (inactive) | > 100 µM (inactive) | > 100 µM (inactive) | 56.2 µM (inactive) | > 100 µM (inactive) | > 100 µM (inactive) | > 100 µM (inactive) | – | – |
| O=C(O)c1cc2ccccc2oc1=O [COUMARIN-3-CARBOXYLIC ACID] | > 100 µM (inactive) | > 100 µM (inactive) | > 100 µM (inactive) | > 100 µM (inactive) | > 100 µM (inactive) | > 100 µM (inactive) | > 100 µM (inactive) | > 100 µM (inactive) | > 100 µM (inactive) | > 100 µM (inactive) | > 100 µM (inactive) | > 100 µM (inactive) | > 100 µM (inactive) | > 100 µM (inactive) | > 100 µM (inactive) | > 100 µM (inactive) | > 100 µM (inactive) | > 100 µM (inactive) | > 100 µM (inactive) | – |
| CC(C)SC(C)(NC(=O)C1C(C)(C)CCC1(C)C)C(=O)O (stereo not drawn) | > 100 µM (inactive) | > 100 µM (inactive) | – | > 100 µM (inactive) | > 100 µM (inactive) | > 100 µM (inactive) | > 100 µM (inactive) | – | > 100 µM (inactive) | – | > 100 µM (inactive) | – | > 100 µM (inactive) | > 100 µM (inactive) | > 100 µM (inactive) | > 100 µM (inactive) | > 100 µM (inactive) | > 100 µM (inactive) | > 100 µM (inactive) | > 100 µM (inactive) |
| COc1ccc2c(c1)c(CC(=O)O)c(C)n2C(=O)c1ccc(Cl)cc1 | > 100 µM (inactive) | 75.3 µM (inactive) | – | > 100 µM (inactive) | 35.6 µM (inactive) | > 100 µM (inactive) | 33.8 µM (inactive) | > 100 µM (inactive) | 28.5 µM (inactive) | 77.6 µM (inactive) | 56.9 µM (inactive) | > 100 µM (inactive) | > 100 µM (inactive) | 43.1 µM (inactive) | 87.7 µM (inactive) | > 100 µM (inactive) | > 100 µM (inactive) | 16.3 µM (inactive) | > 100 µM (inactive) | – |
| Cc1ccc(O)c(C2=CC(c3cccc(Cl)c3)SC(=N)N2)c1 (stereo not drawn) | 26 µM (inactive) | 30.8 µM (inactive) | 13.7 µM (inactive) | 19.1 µM (inactive) | 16.1 µM (inactive) | 29.2 µM (inactive) | 20.1 µM (inactive) | 19.1 µM (inactive) | 17.7 µM (inactive) | 37.8 µM (inactive) | 16.1 µM (inactive) | 17.8 µM (inactive) | 16.1 µM (inactive) | 18.3 µM (inactive) | 29.9 µM (inactive) | – | 16.9 µM (inactive) | 17.3 µM (inactive) | 23.3 µM (inactive) | 26.4 µM (inactive) |
| N#Cc1c(N)oc(-c2ccc([N+](=O)[O-])cc2)c1C#N | 75.3 µM (inactive) | 30.1 µM (inactive) | 39.5 µM (inactive) | – | 32.7 µM (inactive) | 18.7 µM (inactive) | 67.5 µM (inactive) | 18.5 µM (inactive) | 33.3 µM (inactive) | 20.5 µM (inactive) | 27.5 µM (inactive) | 19.2 µM (inactive) | 17 µM (inactive) | 39.4 µM (inactive) | 35 µM (inactive) | 44.2 µM (inactive) | 43.9 µM (inactive) | 54.2 µM (inactive) | 23 µM (inactive) | 45.2 µM (inactive) |
| CCc1c2c(cc3c1CC1(C3)Cc3cc4c(c(C(=O)OC)c3C1)CCCC4)CCCC2 (stereo not drawn) | > 100 µM (inactive) | 12.1 µM (inactive) | 18.5 µM (inactive) | 34.5 µM (inactive) | > 100 µM (inactive) | > 100 µM (inactive) | 51.3 µM (inactive) | > 100 µM (inactive) | > 100 µM (inactive) | > 100 µM (inactive) | – | > 100 µM (inactive) | > 100 µM (inactive) | > 100 µM (inactive) | > 100 µM (inactive) | – | > 100 µM (inactive) | 51.8 µM (inactive) | 29.7 µM (inactive) | > 100 µM (inactive) |
| Cc1cn(CCOCCOC(=O)NC(CCCNC(=N)N)C(=O)O)c(=O)[nH]c1=O (stereo not drawn) | > 100 µM (inactive) | > 100 µM (inactive) | > 100 µM (inactive) | > 100 µM (inactive) | > 100 µM (inactive) | 26.8 µM (inactive) | > 100 µM (inactive) | > 100 µM (inactive) | > 100 µM (inactive) | – | > 100 µM (inactive) | > 100 µM (inactive) | – | > 100 µM (inactive) | > 100 µM (inactive) | > 100 µM (inactive) | > 100 µM (inactive) | > 100 µM (inactive) | > 100 µM (inactive) | > 100 µM (inactive) |
| CCCCC1Cc2ccccc2-c2nc3ccccc3n21 (stereo not drawn) | 18.1 µM (inactive) | 25.2 µM (inactive) | – | 13.6 µM (inactive) | 14.2 µM (inactive) | 15.7 µM (inactive) | 0.0153 µM (active) | 15.8 µM (inactive) | 12.1 µM (inactive) | 18 µM (inactive) | – | 15 µM (inactive) | 14.6 µM (inactive) | 16.4 µM (inactive) | 17.3 µM (inactive) | 16.7 µM (inactive) | – | 5.57 µM (inactive) | – | 20.5 µM (inactive) |
| CCOC(=O)c1cc(-c2ccn(C(C)=O)c2)c(-c2cc(C)co2)[nH]1 | > 100 µM (inactive) | > 100 µM (inactive) | > 100 µM (inactive) | > 100 µM (inactive) | > 100 µM (inactive) | > 100 µM (inactive) | > 100 µM (inactive) | > 100 µM (inactive) | > 100 µM (inactive) | > 100 µM (inactive) | > 100 µM (inactive) | > 100 µM (inactive) | > 100 µM (inactive) | > 100 µM (inactive) | > 100 µM (inactive) | > 100 µM (inactive) | > 100 µM (inactive) | > 100 µM (inactive) | > 100 µM (inactive) | – |
| O=C(NNS(=O)(=O)c1ccccc1)c1csc(NC(=S)NC2CCCCC2)n1 | 39.2 µM (inactive) | 15.4 µM (inactive) | 23.7 µM (inactive) | 36.5 µM (inactive) | 29 µM (inactive) | 38.4 µM (inactive) | 39.6 µM (inactive) | 26.5 µM (inactive) | 44.2 µM (inactive) | 33.5 µM (inactive) | – | 32.1 µM (inactive) | 14.4 µM (inactive) | 33.5 µM (inactive) | 41 µM (inactive) | – | 19.3 µM (inactive) | 36.9 µM (inactive) | 35.2 µM (inactive) | 42.2 µM (inactive) |
